Reference: patent US8338465B2, “Cyclic carboxylic acid rhodanine derivatives for the treatment and prevention of tuberculosis” (priority 2006, dated 2012)
Where “and” joins values, the source holds several entries; their conditions need not be identical. Equal entries are not always repeated. Structures can show the parent of a compound that is named as a salt. Where two headings read alike, the source gives them in different places.

Assays:
[1] = target: T1, Mtb's PDH (Mycobacterium tuberculosis, UniProt P9WIS7); assay: PDH assay with Lpd, DlaT and AceE (NADH formation at 340 nm); format: biochemical; settings: preincubation at room temperature, remaining activity over time; FIG. 4
T1 sequence (P9WIS7 1-553): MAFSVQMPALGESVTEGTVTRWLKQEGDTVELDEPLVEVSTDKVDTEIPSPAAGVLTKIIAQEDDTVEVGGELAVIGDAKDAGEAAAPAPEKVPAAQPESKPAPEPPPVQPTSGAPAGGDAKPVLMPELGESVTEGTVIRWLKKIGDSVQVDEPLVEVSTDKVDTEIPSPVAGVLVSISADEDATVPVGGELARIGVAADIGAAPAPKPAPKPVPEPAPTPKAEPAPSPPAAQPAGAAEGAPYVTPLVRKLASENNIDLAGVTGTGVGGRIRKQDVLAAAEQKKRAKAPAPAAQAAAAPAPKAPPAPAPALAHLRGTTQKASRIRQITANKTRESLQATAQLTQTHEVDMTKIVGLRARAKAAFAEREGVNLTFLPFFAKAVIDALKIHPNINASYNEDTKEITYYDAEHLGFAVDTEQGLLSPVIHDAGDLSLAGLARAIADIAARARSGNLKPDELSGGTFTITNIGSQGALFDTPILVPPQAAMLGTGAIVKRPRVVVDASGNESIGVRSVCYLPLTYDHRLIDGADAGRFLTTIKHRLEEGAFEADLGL
Experimental: Reaction mixtures containing 200 nM Lpd, 350 nM DlaT, 200 nM AceE with or without 1 mM NAD+, 1 mM pyruvate, […] and […] D155931 were preincubated at room temperature and […] tested for remaining activity over time by PDH assay.

[2] = tested on: bacteria and yeast; settings: 10^4-10^5 CFU/mL inoculum
Experimental: (§1) Bacteria were grown to mid-logarithmic phase, diluted to A600=0.1 and inoculated in 200 μl in 96-well plates in the presence of serial dilutions of compounds or vehicle control (DMSO). MICs (minimal concentrations that prevented bacterial growth) were determined at A600 after 24 hours incubation at 37° C.

[3] = tested on: PDH complex from porcine heart; assay: PDH assay with porcine heart PDH complex; settings: increasing concentrations up the limit of its solubility; FIG. 5
[4] = tested on: Mycobacterium tuberculosis; assay: Killing of M. tuberculosis at acidic pH plus or minus nitrite (CFU counts); settings: pH 5.5 or pH 4.5, plus or minus NaNO2, 4 days, FIG. 8
Text: In vitro, RNI can be generated under physiologically relevant conditions by provision of nitrite at a mildly acidified pH. During infection, Mtb resides chiefly in the phagosome of macrophages, where the pH is ˜6 in immunologically non-activated cells and can fall to ˜4.5 in those that have been activated by interferon-γ. Activated macrophages produce RNI, the most abundant of which is the accumulating autoxidation product of NO, nitrite (NO2^−). In the present assay, the intraphagosomal milieu of moderately activated macrophages was partially mimicked by culturing mycobacteria at pH 5.5 with nitrite. […] At pH 5.5, 0.5 mM nitrite generates an amount of NO no greater than that released by 3×10^5 activated macrophages in 0.5 mL in 24 hours. In the present assay pH 5.5, with or without 0.5 mM nitrite, was used.
M. tuberculosis was grown in 7H9+0.2% glycerol+0.05% Tween-80+10% ADN, pH 6.6. CFU were enumerated on 7H11 agar plates with 10% OADC enrichment. Mid-log cultures (A580 0.8-1.0) were prepared as single cell suspensions in 7H9 at pH 5.5 or pH 4.5 and diluted to 0.1 (A580). Inoculum was determined by CFU. Bacteria were incubated with compounds plus or minus 0.5 mM NaNO2 (pH 5.5) or 0.05 NaNO2 (pH 4.5) in 96 well plates in 200 μl for 4 days and plated for CFU counts after serial dilution in 7H9, pH 6.6.

[5] = tested on: Staphylococcus aureus; assay: MIC determination (A600 after 24 hours); settings: for MIC: Staphylococcus aureus, 10^4-10^5 CFU/mL inoculum
Experimental: as §1

[6] = target: T2, dihydrolipoamide acyltransferase (DlaT) (Mycobacterium tuberculosis, UniProt P9WIS7); assay: DlaT inhibition (Dlat IC50); DTNB peroxidase assay with Lpd, DlaT and AhpD; format: biochemical; settings: for IC50: Dlat IC50 category
T2 sequence (P9WIS7 1-553): T1 sequence (P9WIS7 1-553)

[7] = tested on: Mycobacterium bovis var. Bacille Calmette Guerin (BCG); format: cell-based; settings: pH 5.5 or pH 4.5, plus or minus NaNO2, 4 days, CFU; FIGS. 6 and 7
[8] = tested on: Enterococcus faecalis; assay: MIC determination (A600 after 24 hours); settings: for MIC: Enterococcus faecalis
Experimental: as §1

[9] = Table 21, Prodrugs (Examples U1 to U10)

O=C(O)c1cccc(N2C(=O)C(=Cc3ccc(-c4ccccc4Cl)o3)SC2=S)c1 (single isomer, unassigned) [Mycopyrin 5, 3-[5[[5-(2-chlorophenyl)-2-furanyl]methylene]-4-oxo-2-thioxo-3-thiazolidinyl]benzoic acid]
type of inhibition of Mtb's PDH [1]: time-dependent, substrate-independent inhibitor | MIC ([2]; Escherichia coli, pH 5.5): >50 μM and >22 μg/ml | MIC ([2]; Escherichia coli, pH 6.6): >50 μM and >22 μg/ml | MIC ([2]; Pseudomonas aeruginosa, pH 5.5): >50 μM and >22 μg/ml | MIC ([2]; Pseudomonas aeruginosa, pH 6.6): >50 μM and >22 μg/ml | inhibition of porcine PDH [3]: does not inhibit | bactericidal activity to Mycobacterium tuberculosis [4]: bactericidal | MIC ([5]; pH 5.5, Staphylococcus aureus (brain heart infusion), pH 5.5): 5 µM and 2.2 µg/mL | MIC ([5]; pH 5.5, Staphylococcus aureus (nutrient broth), pH 5.5): 1 µM and 0.43 µg/mL | MIC ([5]; pH 6.6, Staphylococcus aureus (brain heart infusion), pH 6.6): > 50 µM and > 22 µg/mL | MIC ([5]; pH 6.6, Staphylococcus aureus (nutrient broth), pH 6.6): 2.5 µM and 1.1 µg/mL | killing of Staphylococcus aureus ([5]; Table 22): kills | IC50 ([6]; Table 1, Compounds A1 to A294): 11 to 40 µM | reversibility of DlaT inhibition ([6]; in presence of NADH, preincubation at room temperature, remaining activity over time, FIG. 3): irreversible inhibitor | bactericidal activity to M. bovis BCG [7]: bactericidal | MIC ([8]; pH 5.5): 5 µM and 2.2 µg/mL | MIC ([8]; pH 6.6): > 50 µM and > 22 µg/mL | killing of Enterococcus faecalis ([8]; Table 22): kills

CS(=O)(=O)c1ccc(-c2ccc(C=C3SC(=S)N(C4CCCC(C(=O)OCCCO)C4)C3=O)o2)cc1 (centres unmarked) [Compound U9, 3-{5-[1-[5-(4-Methanesulfonyl-phenyl)-furan-2-yl]-methylidene]-4-oxo-2-thioxo-thiazolidin-3-yl}-cyclohexanecarboxylic acid 3-hydroxy-propyl ester]
IC50 [6, 9]: 41 to 80 µM

CSc1ccc(-c2ccc(C=C3SC(=S)N(C4CCCC(C(=O)OCCN(CCO)CCO)C4)C3=O)o2)cc1 (centres unmarked) [Compound U10, 3-{5-[1-[5-(4-Methylsulfanyl-phenyl)-furan-2-yl]-methylidene]-4-oxo-2-thioxo-thiazolidin-3-yl}-cyclohexanecarboxylic acid 2-[bis-(2-hydroxy-ethyl)-amino]-ethyl ester hydrochloride]
IC50 [6, 9]: < 10 µM
